As usually defined, the IC50 is the point on the concentration scale where inhibition reaches its midpoint. As usually defined, the inhibition is the change of the read-out against control, counted positive when it falls.

Where “and” joins values, the source holds several entries; their conditions need not be identical. Identical values can stand only once. Some results are limits rather than exact numbers.

The results in this text go back to publication PMC10381533, “Inhibitory Effects of the Fungal Pigment Rubiginosin C on Hyphal and Biofilm Formation in Candida albicans and Candida auris” (Journal of Fungi, 2023).

What all share (assay type): cell-based
Test [1] relates to human endocervical adenocarcinoma KB-3-1 [ACC 158] cells. As to the kind of experiment: MTT cytotoxicity assay, KB-3-1. Conditions: KB-3-1, MTT, tested 37 μg/mL–0.63 ng/mL, read-out: IC50. The procedure: (§1) Cytotoxic effects were evaluated on human endocervical adenocarcinoma KB-3-1 [ACC 158] cells and mouse fibroblasts L929 [ACC 2] upon treatment with Rub C, W, and Rut A and B within the concentration range of 37 μg/mL–0.63 ng/mL. The half-maximum inhibitory concentrations (IC50) were determined by standard MTT assays as reported previously (see the Supplementary Material for detailed information). The IC50 values of Rub A and Z have currently been reported. […]
(§2) KB-3-1 (ACC 158) cervix carcinoma as well as L929 (ACC 2) mouse fibroblasts were cultured under standard cell culture conditions (37 °C, 5% CO2, 95% humidified atmosphere). The cells were maintained in high glucose DMEM containing 10% fetal bovine serum and 100 U/mL penicillin and streptomycin (Gibco, Thermo Fisher Scientific, Waltham, USA). Cell lines were serially passaged after trypsinization, using 0.05% trypsin / 0.02% EDTA solution. The cultures were routinely monitored for potential contamination, and only mycoplasma free cultures were used. The test compounds were investigated for their anti-proliferative effect on cell lines, using the 3-(4,5-dimethylthiazol-2-yl)-2,5-diphenyltetrazolium bromide (MTT) based cell viability assay. Cells were seeded in 96 well microtiter plates (Sarstedt, Germany) with a cell density of 0.05 * 10^6 cells per mL and 100 μL per well and were incubated for 24 h. […]
(§3) Absorbances at 570 nm and 630 nm were measured with a plate reader (Tecan, Männedorf, canton of Zürich, Switzerland). Background absorbance (630 nm) was subtracted from the formazan signal (570 nm). The resulting absorbance is directly proportional to the amount of viable cells. The control was normalized to 100% viable cells, and the viability of cells treated with the test compounds was calculated accordingly. IC50 values were calculated based on a sigmoidal fit model using GraphPad Prism. Means and SD were calculated from at least four independent experiments. […]
(Tetrazolium dyes change colour on reduction, which living cells bring about.)

Test [2] has as its system mouse fibroblasts L929 [ACC 2]. The experiment in a line: MTT cytotoxicity assay, L929. Conditions: MTT, tested 37 μg/mL–0.63 ng/mL, read-out: IC50. The procedure:
as §1, §2, §3

Test [3] concerns murine fibroblasts (L929) and human endocervical adenocarcinoma cells (KB-3-1). The experiment in a line: MTT cytotoxicity, range stated over both cell lines. Conditions: range over Rut A and Rut B and over L929 and KB-3-1. The procedure:
as §1
KB-3-1 (ACC 158) cervix carcinoma as well as L929 (ACC 2) mouse fibroblasts were cultured under standard cell culture conditions (37 °C, 5% CO2, 95% humidified atmosphere). […] The cultures were routinely monitored for potential contamination, and only mycoplasma free cultures were used. […]
as §3

The test system of test [4] is Staphylococcus aureus (DSM 1104) biofilm. As to the kind of experiment: Crystal violet biofilm inhibition assay, S. aureus. The note with it: for inhibitory effects against the biofilm formation of S. aureus: CV assay; for inhibition at 2 µg/mL / inhibition at 3.9 µg/mL / inhibition at 7.8 µg/mL / inhibition at 15.6 µg/mL / inhibition at 31.3 µg/mL / inhibition at 62.5 µg/mL / inhibition at 125 µg/mL / inhibition at 250 µg/mL: Staphylococcus aureus, DSM1104, read-out: inhibition of S. aureus biofilm formation compared to solvent control (= 0%). Here is the method:
Selected azaphilones Rub C and W, Rut A and B were tested against the formation of biofilms in Staphylococcus aureus (DSM 1104). S. aureus DSM 1104 from a −20 °C stock was precultured in 25 mL CASO (casein-peptone soymeal-peptone) medium in a 250 mL flask at 37 °C with 100 rpm for 20 h. The OD600 of the culture solution was adjusted to 0.001 McFarland standard and incubated in 96-well microtiter plates (TPP tissue culture ref.no 92196, Switzerland) for 18 h at 37 °C with 150 μL of serially diluted test […]
compounds (250–2 μg/mL) in CASO with 4% glucose broth. The inhibition of biofilm formation was evaluated by staining with 150 μL of 0.1% crystal violet (CV; Thermo Fisher) following previously established protocols. In the next step, the supernatant of the 96-well plate was discarded and the wells were rinsed once with PBS buffer. The remaining biofilms were stained at room temperature for 15 min, rinsed three times with PBS buffer, and finally dissolved in 150 μL ethanol (95%). The absorbance of the resulting solution at 530 nm was quantified using a plate reader (Synergy 2, BioTek). Methanol (2.5%) and microporenic acid A (MAA) (250–2 μg/mL) were used as negative and positive controls. Standard deviations (SD) of two repeats with duplicates were 10% or less. […]
μg/mL) were used as negative control and positive control, respectively. The assay was conducted for […]
(§4) Table S2: Selected azaphilones were tested against the formation of biofilm of S. aureus, P. aeruginosa as well as C. auris and dispersal effect on preformed biofilm of S. aureus compared to solvent control (= 0%), respectively. SDs are shown as ±SD.
(§5) Compounds Strains Concentrations [µg/mL] […]

Test [5] has as its system Pseudomonas aeruginosa (PA 14) DSM 19882 biofilm. As to the kind of experiment: Crystal violet biofilm inhibition assay, P. aeruginosa. The note with it: Pseudomonas aeruginosa, DSM19882, assay conducted once, read-out: inhibition of P. aeruginosa biofilm formation compared to solvent control (= 0%). Here is the method: Selected azaphilones Rub C and W, Rut A and B were tested against the formation of biofilms in Pseudomonas aeruginosa (PA 14) DSM 19882. Bacterial strain was precultured in 25 mL LB medium (Luria - Bertani Broth) with a 250 mL flask at 37 °C with shaking 100 rpm overnight. The turbidity of the baterial solution was measured and diluted to match the turbidity of a 0.1 McFarland standard in M63 medium, which is supplemented with magnesium sulfate, glucose and casamino acids as previously described. The compounds were added into 150 μL bacterial solution at the concentration (250–2 μg/mL) then the solution was added in U-bottom 96 well plate (Falcon ref.no 351177, Thermo Fisher Scientific). The plates were incubated at 37 °C at 150 rpm for 24 h and biofilms were established at the air liquid interface. The plates were rinsed once by using PBS buffer, the biofilms were stained by 150 μL 0.1% CV at room temperature for 15 min and then rinsed two times by using PBS buffer. The absorbance was quantified with the plate reader (Synergy 2, BioTek) at 550 nm using ethanol (95%). Methanol (2.5 %) and myxovalargin A (250 –2 μg/mL) were used as negative control and positive control, respectively. The assay was conducted for […]
as §4, §5

Consider `CC(=O)OC/C=C/C1=CC2=C(CO1)C(=O)[C@@](C)(OC(=O)c1c(C)cc(O)cc1O)C(=O)/C2=C\C=C\C1=CC2=C(CO1)C(=O)[C@@](C)(O)[C@@H](OC(=O)c1c(C)cc(O)cc1O)C2` [Rut A, rutilin A], for which the IC50 in test [1] was 1.1 µM. Further, the IC50 in test [2] was found to be 1.2 µM. Moreover, the IC50 in test [3] was 1.1 µM to 2.2 µM and 0.9 µg/mL to 1.8 µg/mL. In test [4], the “inhibitory effects against the biofilm formation of S. aureus” value is “moderate inhibitory effects”, the inhibition at 2 µg/mL is under 20%, the inhibition at 3.9 µg/mL is under 20% and the inhibition at 7.8 µg/mL was under 20%. In test [4], the inhibition at 15.6 µg/mL came out at 21 ± 2%, the inhibition at 31.3 µg/mL is 51 ± 10%, the inhibition at 62.5 µg/mL is 51 ± 10% and the inhibition at 125 µg/mL was found to be 55 ± 9%. In addition, in test [4], the inhibition at 250 µg/mL is 60 ± 6%. Further, in test [5], the inhibition at 2 µg/mL was under 20%, the inhibition at 3.9 µg/mL is under 20%, the inhibition at 7.8 µg/mL was under 20% and the inhibition at 15.6 µg/mL is under 20%. For the same molecule, in test [5], the inhibition at 31.3 µg/mL was under 20%, the inhibition at 62.5 µg/mL was under 20%, the inhibition at 125 µg/mL was under 20% and the inhibition at 250 µg/mL was under 20%.
`CC(=O)OC/C=C/C1=CC2=C(CO1)C(=O)[C@@](C)(OC(=O)c1c(C)cc(O)cc1O)C(=O)/C2=C\C=C\C1=CC2=C(CO1)C(=O)[C@@](C)(OC(=O)c1c(C)cc(O)cc1O)[C@@H](O)C2` [Rut B, rutilin B]: the concentration for half-maximal inhibition (IC50) in test [1] was 1.5 µM. Besides, the half-inhibitory concentration (IC50) in test [2] came out at 2.2 µM. Also, in test [3], the IC50 is 1.1 µM to 2.2 µM and 0.9 µg/mL to 1.8 µg/mL. Also, in test [4], the “inhibitory effects against the biofilm formation of S. aureus” value is given as “moderate inhibitory effects”, the inhibition at 2 µg/mL is 86 ± 2%, the inhibition at 3.9 µg/mL is 88 ± 1% and the inhibition at 7.8 µg/mL is 88 ± 1%. Further, in test [4], the inhibition at 15.6 µg/mL came to 87 ± 2%, the inhibition at 31.3 µg/mL was 86 ± 2%, the inhibition at 62.5 µg/mL is 86 ± 2% and the inhibition at 125 µg/mL was found to be 85 ± 2%. Also, the inhibition at 250 µg/mL in test [4] was determined as 84 ± 2%. In test [5], the inhibition at 2 µg/mL is under 20%, the inhibition at 3.9 µg/mL is under 20%, the inhibition at 7.8 µg/mL is under 20% and the inhibition at 15.6 µg/mL is under 20%. In addition, in test [5], the inhibition at 31.3 µg/mL was under 20%, the inhibition at 62.5 µg/mL is under 20%, the inhibition at 125 µg/mL was under 20% and the inhibition at 250 µg/mL is under 20%.
